Test results as given in patent US8697667B2, “Cyclodextrin-modified polyamines for delivery of therapeutic molecules” (Rutgers, The State University of New Jersey, priority 2010, dated 2014).
Where two headings read alike, the source gives them in different places.

How the values were obtained:
[1] = Aqueous solubility; assay type: physicochemical
[2] = system: glioblastoma cells; assay: Annexin-V/Propidium Iodide apoptosis assay; assay type: cell-based; details: combined with siRNA against EGFRvIII (200 nM), polymer 100 μM; SAHA 5 μM, erlotinib 30 μM; versus individual treatments
From the text: Cells were harvested by trypsinization and stained using an Annexin V FITC Apoptosis Detection kit (Roche, Cambridge, Mass.) according to the manufacturer's protocol. The stained cells were immediately analyzed by flow cytometry (FACScan; Becton Dickinson, Franklin Lake, N.J.). Early apoptotic cells with exposed phosphatidylserine but intact cell membranes bound to Annexin V-FITC but excluded propidium iodide. Cells in necrotic or late apoptotic stages were labeled with both Annexin V-FITC and propidium iodide.

In the case of `C#Cc1cccc(Nc2ncnc3cc(OCCOC)c(OCCOC)cc23)c1` [erlotinib, N-(3-ethynylphenyl)-6,7-bis(2-methoxyethoxy)quinazolin-4-amine], the aqueous solubility ([1]; drug loaded into / complexed with β-CD cavity) is reported as 178 mg/100 mL and the “induction of apoptosis (Annexin-V-FITC-positive cells)” value [2] is reported as “cooperative induction of apoptosis”.
`OC[C@H]1O[C@@H]2O[C@H]3[C@H](O)[C@@H](O)[C@@H](O[C@H]4[C@H](O)[C@@H](O)[C@@H](O[C@H]5[C@H](O)[C@@H](O)[C@@H](O[C@H]6[C@H](O)[C@@H](O)[C@@H](O[C@H]7[C@H](O)[C@@H](O)[C@@H](O[C@H]8[C@H](O)[C@@H](O)[C@@H](O[C@H]1[C@H](O)[C@H]2O)O[C@@H]8CO)O[C@@H]7CO)O[C@@H]6CO)O[C@@H]5CO)O[C@@H]4CO)O[C@@H]3CO` [CD, β-cyclodextrin] showed an aqueous solubility [1] of under 1.8 g/100 mL.
In the case of `O=C(CCCCCCC(=O)Nc1ccccc1)NO` [SAHA, suberoylanilide hydroxamic acid], the “induction of apoptosis (Annexin-V-FITC-positive cells)” value [2] is reported as “greater induction of apoptosis”.
